# Entries after “also recorded” stand apart in the source; their conditions may differ. Ends that are not written are not given here. Peptide text beside a SMILES is read from it. * marks the point of attachment. Cbz = O=C(OCc1ccccc1)*
# Experiments:
# [1] = tested on: proteasome (stability of ubiquitinated FLAG-Tat and FLAG-hDOT1L); experiment: In vivo ubiquitination assay in 293T cells with proteasome inhibitor; format: cell-based, human; parameters: dose or concentration left out as unconfirmed; conditions: HA-Ub co-expressed
# Protocol: pcDNA3b-FLAG®-hDOT1L and pcDNA3b-FLAG®-Tat were transfected to 293T cells with or without pHA-Ubiquitin (Ub) by using FUGENE™ 6 transfection reagent (Roche Diagnostics, Indianapolis, Ind.). Twenty-four hours after transfection, MG132 was added at the final concentration of […], and the cells were cultured for […]. Cells were then lysed with lysis buffer (50 mM Tris-HCl, pH 7.5, 0.5 mM EDTA, 1% SDS, and 1 mM DTT), and boiled for 10 minutes before centrifugation at 14,000 rpm for 10 minutes. The supernatant was diluted by 10-fold with NP40 lysis buffer (50 mM Tris-HCl, pH 7.5, 150 mM NaCl, 0.1% NP40, 50 mM NaF, 10% glycerol, 1 mM DTT, and 1 mM PMSF), and incubated with […] of FLAG® (M2) antibody for 4 hours at 4° C. Protein G beads were then added and incubated further for one hour. The beads were washed three times with lysis buffer containing 0.5% of NP40 before eluting the protein with SDS sample buffer for SDS-PAGE analysis.
# Protein ubiquitination is the major pathway for rapid protein degradation (Pickart (2001) Annu. Rev. Biochem 70:503-533). Toward this end, we asked whether hDOT1L is subjected to ubiquitination. We transfected 293T cells with a construct encoding FLAG®-hDOT1L with or without co-transfection of a construct encoding HA-tagged ubiquitin. […]
# [2] = tested on: hDOT1L binding to HeLa mono-nucleosomes; experiment: Gel mobility shift assay (mono-nucleosome binding) with competitor peptide; parameters: species or system human; conditions: HeLa mono-nucleosomes 1.5 μM
# Protocol: Different amount of recombinant hDOT1L proteins were incubated with HeLa mono-nucleosomes (1.5 μM) under the same conditions as those in the histone methyltransferase assay, except that SAM is omitted. Following incubation for 1 hour at 30° C., samples were resolved in a 1.8% agarose gel and visualized under UV by ethidium bromide staining.
# We next examined mono-nucleosome binding of hDot1(1-416) and several of its truncation variants by gel mobility shift assays (GSMA). […] Consistent with this, we could detect strong, but apparently non-sequence specific, binding of hDOT1L(1-416) with DNA extracted from mono-nucleosomes. To further probe the nature of hDOT1L-nucleosome interaction, we used a 21-residue highly charged peptide, C-RS10, containing 10 tandem repeats of arginine and serine as a competitor in our nucleosome binding and HMTase assays.
# hDOT1L Δ(376-390) = target: T1, hDOT1L Δ(376-390) (Homo sapiens, UniProt Q8TEK3, DEL376-390); experiment: Histone methyltransferase assay with peptide competition; format: biochemical; conditions: 1.5, 15 or 150 μM peptide; oligo-nucleosome substrate; FIG. 6D lanes 5-8
# T1 construct: GST (N, cleaved yes); made in house; host or cells: E. coli
# Protocol: (§1) Histone methyltransferase assay was performed using established methods (Wang, et al. (2001) Science 293:853-857). Oligo-nucleosomes purified from HeLa cells or chicken blood cells were quantified and equal concentrations were used in each assay. Briefly, recombinant hDOT1L proteins (0.75 μM) were incubated with oligo-nucleosomes (1.5 μM) in reactions containing 20 mM Tris-HCl (pH 8.0), 4 mM EDTA, 1 mM PMSF, 0.5 mM DTT, and 0.5 μL ^3H-SAM (15 Ci/mM; NEN™ Life Science Products) for 1 hour at 30° C. For peptide competition, 1.5 μM, 15 μM, or 150 μM of positively charged C-RS10 peptide ([…] SEQ ID NO:20) were added to reactions. Reactions were stopped by addition of 7 μL of 5×SDS loading buffer and proteins were separated in an 18% SDS-PAGE. Following stain and destain of COMMASSIE® Blue, gels were treated with Rapid Autoradiography Enhancer (NEN™ Life Science Products, Boston Mass.) for 40 minutes, dried, and exposed to X-ray films. For quantitation, gel slices were excised and counted with scintillation counting. Two independent experiments were performed at the same time and average ^3H (CPM) values were used in the figures.
# hDOT1L(1-416) = target: T2, hDOT1L(1-416) (Homo sapiens, UniProt Q8TEK3); experiment: as above; format: biochemical; conditions: 1.5, 15 or 150 μM peptide; oligo-nucleosome substrate; FIG. 6D lanes 1-4
# T2 construct: The plasmid expressing the first 416 residues of hDOT1L, pGEX-KG/hDOT1L(1-416); GST (N, cleaved yes); made in house; host or cells: E. coli
# Protocol: as §1
# [3] = tested on: CRM1-mediated nuclear export of hDOT1L NESs fused with EGFP; format: cell-based, human; conditions: 20 nM, eight hours after treatment, U2OS cells, FIG. 10E
# Protocol: To further characterize the nuclear export ability of the three NESs identified, it was determined whether the NESs were involved in active nuclear export mediated by the CRM1 (chromosomal region maintenance) pathway. CRM1 was initially identified as a S. pombe protein whose mutation affects higher order chromosome structure (Adachi and Yanagida (1989) J. Cell Biol. 108:1195-1207). Subsequent studies indicate that CRM1 is an export receptor for Leucine-rich nuclear export signals (Fornerod, et al. (1997) Cell 90:1051-1060; Ossareh-Nazari, et al. (1997) Science 278:141-144; Stade, et al. (1997) Cell 90:1041-1050). […] To investigate the effect of LMB treatment on the nuclear export ability of the NESs, U2OS cells were transfected with constructs encoding each of the three NESs fused with EGFP in the presence or absence of 20 nM of LMB. Eight hours after LMB treatment, green fluorescence was observed under a microscope in living cells.
# T1 sequence (Q8TEK3 with tags, fused parts or gaps DEL376-390): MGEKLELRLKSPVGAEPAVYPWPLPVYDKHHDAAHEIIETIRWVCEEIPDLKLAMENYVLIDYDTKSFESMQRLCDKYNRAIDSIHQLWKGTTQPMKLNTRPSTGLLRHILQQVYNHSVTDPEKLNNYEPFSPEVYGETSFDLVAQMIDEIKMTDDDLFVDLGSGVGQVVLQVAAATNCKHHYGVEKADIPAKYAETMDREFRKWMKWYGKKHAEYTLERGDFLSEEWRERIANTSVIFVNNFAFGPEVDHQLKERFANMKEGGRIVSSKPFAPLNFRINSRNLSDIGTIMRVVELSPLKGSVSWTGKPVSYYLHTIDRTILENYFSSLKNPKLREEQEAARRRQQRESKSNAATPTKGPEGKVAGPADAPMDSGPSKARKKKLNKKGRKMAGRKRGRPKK
# T2 sequence (Q8TEK3 1-416): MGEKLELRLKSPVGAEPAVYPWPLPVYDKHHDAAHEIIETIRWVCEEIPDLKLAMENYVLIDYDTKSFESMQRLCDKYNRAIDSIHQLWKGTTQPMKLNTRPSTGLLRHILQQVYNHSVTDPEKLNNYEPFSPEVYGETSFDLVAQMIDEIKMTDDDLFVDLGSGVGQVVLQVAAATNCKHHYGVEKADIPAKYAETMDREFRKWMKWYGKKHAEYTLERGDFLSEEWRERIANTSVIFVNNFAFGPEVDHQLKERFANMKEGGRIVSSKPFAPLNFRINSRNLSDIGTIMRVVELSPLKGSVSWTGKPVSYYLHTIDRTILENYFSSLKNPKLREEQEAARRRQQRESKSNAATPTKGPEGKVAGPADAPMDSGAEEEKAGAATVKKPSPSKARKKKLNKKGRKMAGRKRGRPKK
compound,measurement,setting,value
CC(C)C[C@@H](C=O)NC(=O)[C@H](CC(C)C)NC(=O)[C@H](CC(C)C)NC(=O)OCc1ccccc1 [MG132] (Cbz-Leu-Leu-Leu-aldehyde),Stabilization of ubiquitinated FLAG-hDOT1L,[1]; FIG. 8A lanes 4 and 5,did not appear to stabilize
same,Stabilization of ubiquitinated Tat,[1]; FIG. 8A lanes 6 and 7,successfully stabilized ubiquitinated Tat
CRSRSRSRSRSRSRSRSRSRS,Effect of peptide on mono-nucleosome migration in GSMA,[2],prevented mono-nucleosomes from entering the gel well
same,HMTase activity of Δ(376-390) in presence of competitor peptide,hDOT1L Δ(376-390),effectively competed
same,HMTase activity of hDOT1L(1-416) in presence of competitor peptide,hDOT1L(1-416),effectively competed
"CCC(=C/[C@H](C)C/C=C/C(C)=C/[C@@H](C)C(=O)[C@@H](C)[C@H](O)[C@@H](C)C/C(C)=C/C(=O)O)/C=C/[C@@H]1OC(=O)C=C[C@@H]1C [LMB, Leptomycin B]","Effect on nuclear export by NES1, NES2, NES3 fused with EGFP",[3],prevented nuclear export by all the three NESs; also recorded: can be blocked

# Source: patent US9534259B2, “DOT1 histone methyltransferases as a target for identifying therapeutic agents for leukemia” (The University of North Carolina at Chapel Hill, priority 2003, dated 2017)
